Laboratory results from US10800782B2, “Inhibitors of cellular metabolic processes” (Agios Pharmaceuticals, Inc., priority 2016, dated 2020).
pIC50: −log10 of the molar value.

Target: T1, MAT2A (Homo sapiens, UniProt P31153)
T1 construct: His6; made in house; host or cells: SF9 insect cells
Test: MAT2A biochemical assay (colorimetric inorganic phosphate detection, PiColorLock)
Conditions: recombinant His6-tagged MAT2A 1 μg/ml; 60 minutes preincubation at 25° C.; L-Met 80 μM, ATP 100 μM; 60 minutes reaction; read at 623 nm; read-out: MAT2A Inhibition Score
In short: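 Colorimetric malachite green readout of phosphate released when MAT2A turns over L-Met and ATP, after 60 min at room temperature. Enzyme: SF9-expressed His6-tagged MAT2A at 1 μg/ml. Buffer: Tris pH 8.0, 50 mM KCl, 15 mM MgCl2, 300 uM EDTA, 0.005% BSA. Compounds tested as ten-point three-fold dilutions.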

T1 sequence (P31153 whole entry): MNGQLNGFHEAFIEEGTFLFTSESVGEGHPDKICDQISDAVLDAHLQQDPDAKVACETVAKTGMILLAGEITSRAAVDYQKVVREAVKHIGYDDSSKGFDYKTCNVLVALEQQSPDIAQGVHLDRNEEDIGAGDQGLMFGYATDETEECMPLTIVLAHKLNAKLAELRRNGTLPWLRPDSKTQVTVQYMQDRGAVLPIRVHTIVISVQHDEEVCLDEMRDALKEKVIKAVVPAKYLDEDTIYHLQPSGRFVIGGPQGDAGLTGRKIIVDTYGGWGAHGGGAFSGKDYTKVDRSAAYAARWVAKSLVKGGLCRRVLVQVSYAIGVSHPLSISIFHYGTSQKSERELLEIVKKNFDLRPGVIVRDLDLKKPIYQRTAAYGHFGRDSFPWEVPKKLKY

With `COc1ccc(-c2c(Nc3nccnc3O)[nH]c3c(-c4ccccc4)c(-c4ccccc4)nn3c2=O)cc1` [Compound 127, 5-((3-hydroxypyrazin-2-yl)amino)-6-(4-methoxyphenyl)-2,3-diphenylpyrazolo[1,5-a]pyrimidin-7(4H)-one] the pIC50 was greater than 7.00.

`NC(=O)NCc1[nH]c2c(-c3ccccc3)c(-c3ccccc3)nn2c(=O)c1-c1ccc2ncccc2c1` [Compound 235, 1-((7-oxo-2,3-diphenyl-6-(quinolin-6-yl)-4,7-dihydropyrazolo[1,5-a]pyrimidin-5-yl)methyl)urea] was tested, and the pIC50 was greater than 7.00.

Work on `Cc1[nH]c2c(-c3ccccc3)c(-c3ccccc3)nn2c(=O)c1-c1ccc2ncccc2c1` [Compound 204, 5-methyl-2,3-diphenyl-6-(quinolin-6-yl)pyrazolo[1,5-a]pyrimidin-7(4H)-one] yielded a pIC50 greater than 7.00.

In the case of `O=c1c(-c2ccc3ncccc3c2)c(Nc2ccccn2)[nH]c2c(C3=CCCCC3)c(-c3ccccc3)nn12` [Compound 174, 3-cyclohexenyl-2-phenyl-5-(pyridin-2-ylamino)-6-(quinolin-6-yl)pyrazolo[1,5-a]pyrimidin-7(4H)-one], the pIC50 was greater than 7.00.

Molecule `CCNC(=O)c1nnc(Nc2[nH]c3c(-c4ccccc4)c(-c4ccccc4)nn3c(=O)c2-c2ccc3ncccc3c2)o1` [Compound 199, N-ethyl-5-((7-oxo-2,3-diphenyl-6-(quinolin-6-yl)-4,7-dihydropyrazolo[1,5-a]pyrimidin-5-yl)amino)-1,3,4-oxadiazole-2-carboxamide] has a pIC50 greater than 7.00.

With `COc1ccc(-c2c(Nc3nccnc3N)[nH]c3c(-c4ccccc4)c(-c4ccccc4)nn3c2=O)cc1` [Compound 128, 5-((3-aminopyrazin-2-yl)amino)-6-(4-methoxyphenyl)-2,3-diphenylpyrazolo[1,5-a]pyrimidin-7(4H)-one] the pIC50 was greater than 7.00.

`Cc1cc(Nc2[nH]c3c(-c4ccccc4)c(-c4ccccc4)nn3c(=O)c2-c2ccc3ncccc3c2)n[nH]1` [Compound 188, 5-((5-methyl-1H-pyrazol-3-yl)amino)-2,3-diphenyl-6-(quinolin-6-yl)pyrazolo[1,5-a]pyrimidin-7(4H)-one] showed a pIC50 greater than 7.00.

`O=c1c(-c2ccc3ncccc3c2)c[nH]c2c(-c3ccccc3)c(-c3ccccc3)nn12` [Compound 244, 2,3-diphenyl-6-(quinolin-6-yl)pyrazolo[1,5-a]pyrimidin-7(4H)-one] gave a pIC50 greater than 7.00.

In the case of `Cc1[nH]c2c(N3CCCCC3)c(-c3ccccc3)nn2c(=O)c1-c1ccc(O)nc1` [Compound 309, 6-(6-hydroxypyridin-3-yl)-5-methyl-2-phenyl-3-(piperidin-1-yl)pyrazolo[1,5-a]pyrimidin-7(4H)-one], the pIC50 was 6.00 to 7.00.

In the case of `COc1ccc(-c2c(Nc3ccc(Cl)nn3)[nH]c3c(-c4ccccc4)c(-c4ccccc4)nn3c2=O)cc1` [Compound 125, 5-((6-chloropyridazin-3-yl)amino)-6-(4-methoxyphenyl)-2,3-diphenylpyrazolo[1,5-a]pyrimidin-7(4H)-one], the pIC50 was greater than 7.00.

Work on `COc1ccc(-c2c(Nc3ncccc3O)[nH]c3c(-c4ccccc4)c(-c4ccccc4)nn3c2=O)cc1` [Compound 113, 5-(3-hydroxypyridin-2-ylamino)-6-(4-methoxy-phenyl)-2,3-diphenylpyrazolo[1,5-a]pyrimidin-7(4H)-one] yielded a pIC50 greater than 7.00.

Work on `Cc1[nH]c2c(C3CCCCC3)c(-c3ccccc3)nn2c(=O)c1-c1ccc2ncccc2c1` [Compound 277, 3-cyclohexyl-5-methyl-2-phenyl-6-(quinolin-6-yl)pyrazolo[1,5-a]pyrimidin-7(4H)-one] yielded a pIC50 greater than 7.00.

Work on `COc1ccc(-c2c(Nc3ccccn3)[nH]c3c(-c4ccccc4)c(-c4ccccc4)nn3c2=O)cc1` [Compound 102, 6-(4-methoxyphenyl)-2,3-diphenyl-5-(pyridin-2-ylamino)pyrazolo[1,5-a]pyrimidin-7(4H)-one] yielded a pIC50 greater than 7.00.

`O=c1c(-c2ccc3ncccc3c2)c(Cc2ncn[nH]2)[nH]c2c(-c3ccccc3)c(-c3ccccc3)nn12` [Compound 321, 5-((1H-1,2,4-triazol-5-yl)methyl)-2,3-diphenyl-6-(quinolin-6-yl)pyrazolo[1,5-a]pyrimidin-7(4H)-one] showed a pIC50 of 6.00 to 7.00.

With `CCOC(=O)c1nnc(Nc2[nH]c3c(-c4ccccc4)c(-c4ccccc4)nn3c(=O)c2-c2ccc3ncccc3c2)o1` [Compound 171, ethyl 5-((7-oxo-2,3-diphenyl-6-(quinolin-6-yl)-4,7-dihydropyrazolo[1,5-a]pyrimidin-5-yl)amino)-1,3,4-oxadiazole-2-carboxylate] the pIC50 was greater than 7.00.

Molecule `COc1ccc(-c2c(C)[nH]c3c(-c4ccccc4)c(-c4ccccc4)nn3c2=O)cc1` [Compound 209, 6-(4-methoxyphenyl)-5-methyl-2,3-diphenylpyrazolo[1,5-a]pyrimidin-7(4H)-one] has a pIC50 greater than 7.00.

`COc1ccc(-c2c(CO)[nH]c3c(C4=CCCCC4)c(-c4ccccc4)nn3c2=O)cc1` [Compound 229, 3-(cyclohex-1-en-1-yl)-5-(hydroxymethyl)-6-(4-methoxyphenyl)-2-phenylpyrazolo[1,5-a]pyrimidin-7(4H)-one] gave a pIC50 greater than 7.00.

`COc1ccc(-c2c(Nc3nncs3)[nH]c3c(C4=CCCCC4)c(-c4ccccc4)nn3c2=O)cc1` [Compound 167, 5-((1,3,4-thiadiazol-2-yl)amino)-3-(cyclohex-1-en-1-yl)-6-(4-methoxyphenyl)-2-phenylpyrazolo[1,5-a]pyrimidin-7(4H)-one] was tested, and the pIC50 was greater than 7.00.

`COc1ccc(-c2c(Nc3ccccn3)[nH]c3c(N4CCCCC4)c(-c4ccccc4)nn3c2=O)cc1` [Compound 181, 6-(4-methoxyphenyl)-2-phenyl-3-(piperidin-1-yl)-5-(pyridin-2-ylamino)pyrazolo[1,5-a]pyrimidin-7(4H)-one] showed a pIC50 greater than 7.00.

For `O=c1c(-c2ccc3ncccc3c2)c(Nc2ccccn2)[nH]c2c(-c3ccccc3)c(-c3ccccc3)nn12` [Compound 168, 2,3-diphenyl-5-(pyridin-2-ylamino)-6-(quinolin-6-yl)pyrazolo[1,5-a]pyrimidin-7(4H)-one], the pIC50 was greater than 7.00.

Molecule `COc1ccc(-c2c(Nc3cc(N)[nH]n3)[nH]c3c(-c4ccccc4)c(-c4ccccc4)nn3c2=O)cc1` [Compound 186, 5-((5-amino-1H-pyrazol-3-yl)amino)-6-(4-methoxyphenyl)-2,3-diphenylpyrazolo[1,5-a]pyrimidin-7(4H)-one] has a pIC50 greater than 7.00.

Molecule `COc1ccc(-c2c(Nc3ccncn3)[nH]c3c(C4=CCCCC4)c(-c4ccccc4)nn3c2=O)cc1` [Compound 155, 3-(cyclohex-1-en-1-yl)-6-(4-methoxyphenyl)-2-phenyl-5-(pyrimidin-4-ylamino)pyrazolo[1,5-a]pyrimidin-7(4H)-one] has a pIC50 greater than 7.00.

`COc1ccc(-c2c(Nc3ccccn3)[nH]c3c(-c4ccccc4)c(-c4ccccn4)nn3c2=O)cc1` [Compound 180, 6-(4-methoxyphenyl)-3-phenyl-2-(pyridin-2-yl)-5-(pyridin-2-ylamino)pyrazolo[1,5-a]pyrimidin-7(4H)-one] was tested, and the pIC50 was greater than 7.00.

Molecule `COc1ccc(-c2c(Nc3ccnc(O)n3)[nH]c3c(-c4ccccc4)c(-c4ccccc4)nn3c2=O)cc1` [Compound 119, 5-(2-hydroxypyrimidin-4-ylamino)-6-(4-methoxyphenyl)-2,3-diphenyl-pyrazolo[1,5-a]pyrimidin-7(4H)-one] has a pIC50 greater than 7.00.

In the case of `COc1ccc(-c2c(Nc3cc[nH]n3)[nH]c3c(-c4ccccc4)c(-c4ccccc4)nn3c2=O)cc1` [Compound 182, 5-((1H-pyrazol-3-yl)amino)-6-(4-methoxyphenyl)-2,3-diphenylpyrazolo[1,5-a]pyrimidin-7(4H)-one], the pIC50 was greater than 7.00.

Molecule `COc1ccc(-c2c(Nc3cccnn3)[nH]c3c(-c4ccccc4)c(-c4ccccc4)nn3c2=O)cc1` [Compound 101, 6-(4-methoxyphenyl)-2,3-diphenyl-5-(pyridazin-3-ylamino)pyrazolo[1,5-a]pyrimidin-7(4H)-one] has a pIC50 greater than 7.00.

For `COc1ccc(-c2c(Nc3ccnc(OC)n3)[nH]c3c(C4=CCCCC4)c(-c4ccccc4)nn3c2=O)cc1` [Compound 156, 3-cyclohexenyl-6-(4-methoxyphenyl)-5-(2-methoxypyrimidin-4-ylamino)-2-phenyl-pyrazolo[1,5-a]pyrimidin-7(4H)-one], the pIC50 was greater than 7.00.

Molecule `COc1cc(-c2nn3c(=O)c(-c4ccc5ncccc5c4)c(C)[nH]c3c2-c2ccccc2)ccn1` [Compound 351, 2-(2-methoxypyridin-4-yl)-5-methyl-3-phenyl-6-(quinolin-6-yl)pyrazolo[1,5-a]pyrimidin-7(4H)-one] has a pIC50 of 5.00 to 6.00.

In the case of `Cc1[nH]c2c(-c3ccccc3)c(-c3ccccc3)nn2c(=O)c1-c1ccc2c(c1)NC(=O)CO2` [Compound 257, 6-(5-methyl-7-oxo-2,3-diphenyl-4,7-dihydropyrazolo[1,5-a]pyrimidin-6-yl)-2H-benzo[b][1,4]oxazin-3 (4H)-one], the pIC50 was greater than 7.00.

Molecule `COc1ccc(-c2c(NCCO)[nH]c3c(-c4ccccc4)c(-c4ccccc4)nn3c2=O)cc1` [Compound 286, 5-((2-hydroxyethyl)amino)-6-(4-methoxyphenyl)-2,3-diphenylpyrazolo[1,5-a]pyrimidin-7(4H)-one] has a pIC50 greater than 7.00.

With `COc1ccc(-c2c(C)[nH]c3c(-c4ccccc4)c(-c4ccccc4)nn3c2=O)cn1` [Compound 333, 6-(6-methoxypyridin-3-yl)-5-methyl-2,3-diphenylpyrazolo[1,5-a]pyrimidin-7(4H)-one] the pIC50 was 6.00 to 7.00.

`NCc1[nH]c2c(-c3ccccc3)c(-c3ccccc3)nn2c(=O)c1-c1ccc2ncccc2c1` [Compound 224, 5-(aminomethyl)-2,3-diphenyl-6-(quinolin-6-yl)pyrazolo[1,5-a]pyrimidin-7(4H)-one] gave a pIC50 greater than 7.00.

With `O=C(CO)Nc1[nH]c2c(-c3ccccc3)c(-c3ccccc3)nn2c(=O)c1-c1ccc2ncccc2c1` [Compound 173, 2-hydroxy-N-(7-oxo-2,3-diphenyl-6-(quinolin-6-yl)-4,7-dihydropyrazolo[1,5-a]pyrimidin-5-yl)acetamide] the pIC50 was greater than 7.00.

In the case of `Cc1[nH]c2c(-c3ccccc3)c(-c3ccccc3)nn2c(=O)c1-c1ccc2nnccc2c1` [Compound 335, 6-(cinnolin-6-yl)-5-methyl-2,3-diphenylpyrazolo[1,5-a]pyrimidin-7(4H)-one], the pIC50 was 6.00 to 7.00.
